{
  "source": "patent EP0207696A1",
  "about": "“Dialkylaminotetrahydrobenzothiazoles and oxazoles” (ELI LILLY AND COMPANY, priority 1985, dated 1987)",
  "key": {"[1]": {"tested_on": "prolactin secretion", "experiment": "inhibition of prolactin secretion in reserpinized rats", "assay_type": "in vivo, rats of the Sprague-Dawley strain", "settings": "percent prolactin inhibition; 50 mcg/kg intraperitoneally; serum one hour after treatment; reserpine-pretreated male rats", "description": "As previously stated, the compounds of this invention (wherein neither R^3 nor R^4 is H) are receptor agonists; ie, they are capable of increasing the quantities of various neurohormones--dopamine and norepi- nephrine in particular--available for interaction with specific receptors. For example, the compound according to XX wherein R^1 and R^2 are H and R^3 and R^4 are both n-propyl, is a specific dopamine D-2 agonist.\nAdult male rats of the Sprague-Dawley strain weighing about 200 g were housed in an air-conditioned room with controlled lighting (lights on 6 a.m. - 8 p.m.) and fed lab chow and water ad libitum. Each rat received an intraperitoneal injection of 2.0 mg of reserpine in aqueous suspension 18 hours before administration of the test drug. The purpose of the reserpine was to keep the rat prolactin levels uniformly elevated. The compound was dissolved in 10 percent ethanol, and injected intraperitoneally to groups of ten rats at preselected dose levels. A control group of 10 intact males received an equivalent amount of 10 percent ethanol. One hour after treatment, all rats were killed by decapitation, and 150 µl aliquots of serum were assayed for prolactin.\nThe difference between the prolactin levels of the treated rats and the control rats, divided by the prolactin level of the control rats gives the percent inhibition of prolactin secretion attributable to the given dose. […]"}, "[2]": {"tested_on": "6-hydroxydopamine-lesioned rats", "experiment": "turning behavior in 6-hydroxydopamine-lesioned rats", "assay_type": "in vivo", "settings": "1000 mcg/kg; first 15 minutes after the end of the latency period", "description": "Dopamine agonists are also known to affect turning behavior in 6-hydroxydopamine-lesioned rats in a test procedure designed to uncover compounds useful for the treatment of Parkinsonism. In this test, nigroneostriatal-lesioned rats are employed, as prepared by the procedure of Ungerstedt and Arbuthnott, Brain Res, 24, 485 (1970). A compound having dopamine agonist activity causes the rats to turn in circles contralateral to the side of the lesion. After a latency period, which varies from compound to compound, the number of turns is counted over a 15-minute period.\nResults obtained from such testing for (±)-2-amino-6-di-n-propylamino-5,6,7,8-tetrahydrobenzothiazole dihydrobromide are set forth in Table 2 below. In the table, column 1 gives the dose and column 2 the average number of turns observed in first 15 minutes after the end of the latency period."}, "[3]": {"tested_on": "anesthetized spontaneously hypertensive rats", "experiment": "blood pressure in anesthetized spontaneously hypertensive rats", "assay_type": "in vivo", "settings": "anesthetized SHR", "method": "Compounds according to XX, particularly those wherein both R^3 and R^4 are methyl, reduce the blood pressure of anesthetized spontaneously hypertensive rats, as illustrated by the following experiment: • Adult male spontaneously hypertensive rats (SHR) (Taconic Farms, Germantown, New York), weighing approximately 300 g. were anesthetized with pentobarbital sodium (60 mg./kg., i.p.). The trachea was cannulated and the SHR respired room air. Pulsatile arterial blood pressure was measured from a cannulated carotid artery using a Statham transducer (P23 ID). Mean arterial blood pressure was calculated as diastolic blood pressure plus 1/3 pulse pressure. Cardiac rate was monitored by a cardiotachometer which was triggered by the systolic pressure pulse. Drug solutions were administered i.v. through a catheter placed in a femoral vein.\nArterial blood pressure and cardiac rate were recorded on a multichannel oscillograph (Beckman, Model R511A). Fifteen minutes were allowed to elapse following surgery for equilibration of the preparation.\nTable 3 which follows gives the results of this test using (±)-2-amino-6-di-n-propyl-5,6,7,8-tetra- hydrobenzothiazole dihydrobromide. In Table 3, column 1 gives the dose level, column 2, the change in mean arterial blood pressure."}, "[4]": {"tested_on": "conscious SHR", "experiment": "hypotensive action in conscious SHR", "assay_type": "in vivo", "settings": "1 mg/kg i.v.", "method": "In another test for hypotensive action conscious SHR, cannulated in the femoral artery and vein, were used. The drug was administered i.v. (±)-2-Amino-6-dimethylamino-5,6,7,8-tetrahydrobenzothiazole was tested in this system as the dihydrobromide salt at a 1 mg/kg dose. In the table, column 1 gives time in minutes after injection and columns 2 and 3 the mean percent decrease in arterial pressure and heart rate respectively for that time interval."}},
  "data": [
    {"compound": "CCCN(CCC)C1CCc2nc(N)sc2C1", "note": "(racemic) [(±)-2-Amino-6-di-n-propylamino-5,6,7,8-tetrahydrobenzothiazole]", "values": [
      {"measurement": "% Inhibition", "setting": "[1]", "result": 30, "unit": "%"},
      {"measurement": "Average number of Turns", "setting": "[2]", "result": 51},
      {"measurement": "Decrease in Mean Arterial Blood Pressure", "setting": "[3]; 1 mcg/kg i.v.", "result": "-16.1 ± 2.4"},
      {"measurement": "Decrease in Mean Arterial Blood Pressure", "setting": "[3]; 10 mcg/kg i.v.", "result": "-21.0 ± 2.0"},
      {"measurement": "Decrease in Mean Arterial Blood Pressure", "setting": "[3]; 100 mcg/kg i.v.", "result": "-34.1 ± 3.2"},
      {"measurement": "Decrease in Mean Arterial Blood Pressure", "setting": "[3]; 1000 mcg/kg i.v.", "result": "+13.5 ± 4.4"}
    ]},
    {"compound": "CN(C)C1CCc2nc(N)sc2C1", "note": "(racemic) [(±)-2-Amino-6-dimethylamino-5,6,7,8-tetrahydrobenzothiazole]", "values": [
      {"measurement": "PERCENT CHANGE FROM CONTROL Blood Pressure", "setting": "[4]; 5 minutes after injection", "result": -3.6, "unit": "%"},
      {"measurement": "PERCENT CHANGE FROM CONTROL Heart Rate", "setting": "[4]; 5 minutes after injection", "result": -12.3, "unit": "%"},
      {"measurement": "PERCENT CHANGE FROM CONTROL Blood Pressure", "setting": "[4]; 15 minutes after injection", "result": -17.1, "unit": "%"},
      {"measurement": "PERCENT CHANGE FROM CONTROL Heart Rate", "setting": "[4]; 15 minutes after injection", "result": -17.7, "unit": "%"},
      {"measurement": "PERCENT CHANGE FROM CONTROL Blood Pressure", "setting": "[4]; 30 minutes after injection", "result": -18.6, "unit": "%"},
      {"measurement": "PERCENT CHANGE FROM CONTROL Heart Rate", "setting": "[4]; 30 minutes after injection", "result": -15.5, "unit": "%"},
      {"measurement": "PERCENT CHANGE FROM CONTROL Blood Pressure", "setting": "[4]; 45 minutes after injection", "result": -16.9, "unit": "%"},
      {"measurement": "PERCENT CHANGE FROM CONTROL Heart Rate", "setting": "[4]; 45 minutes after injection", "result": -8.3, "unit": "%"},
      {"measurement": "PERCENT CHANGE FROM CONTROL Blood Pressure", "setting": "[4]; 60 minutes after injection", "result": -17.2, "unit": "%"},
      {"measurement": "PERCENT CHANGE FROM CONTROL Heart Rate", "setting": "[4]; 60 minutes after injection", "result": -5.2, "unit": "%"},
      {"measurement": "PERCENT CHANGE FROM CONTROL Blood Pressure", "setting": "[4]; 90 minutes after injection", "result": -16.9, "unit": "%"},
      {"measurement": "PERCENT CHANGE FROM CONTROL Heart Rate", "setting": "[4]; 90 minutes after injection", "result": -0.7, "unit": "%"},
      {"measurement": "PERCENT CHANGE FROM CONTROL Blood Pressure", "setting": "[4]; 120 minutes after injection", "result": -15.8, "unit": "%"},
      {"measurement": "PERCENT CHANGE FROM CONTROL Heart Rate", "setting": "[4]; 120 minutes after injection", "result": -4.1, "unit": "%"},
      {"measurement": "PERCENT CHANGE FROM CONTROL Blood Pressure", "setting": "[4]; 180 minutes after injection", "result": -14.7, "unit": "%"},
      {"measurement": "PERCENT CHANGE FROM CONTROL Heart Rate", "setting": "[4]; 180 minutes after injection", "result": -4.1, "unit": "%"}
    ]}
  ]
}
